Results: PMC10909654 (The Journal of Cell Biology, 2024)

Legend:
FABP7 [1] = biological target: T1, FABP7 (Homo sapiens, UniProt O15540); assay: radioligand competition against 3H-cholesterol; assay type: binding; conditions: 1.5 µM cholesterol, pH 7.4, 25 °C, competitive
T1 sequence (O15540 2-132): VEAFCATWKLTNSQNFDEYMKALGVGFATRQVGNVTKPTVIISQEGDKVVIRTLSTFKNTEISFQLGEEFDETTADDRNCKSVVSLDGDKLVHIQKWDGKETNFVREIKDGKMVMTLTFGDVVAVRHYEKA

FABP8 [2] = biological target: T2, FABP8 (Homo sapiens, UniProt P02689); assay: radioligand binding, Ni bead pull-down, scintillation counting; conditions: 1.5 µM ligand, 150 nM protein; labelled compound; pH 7.4, 25 °C
T2 sequence (P02689 2-132): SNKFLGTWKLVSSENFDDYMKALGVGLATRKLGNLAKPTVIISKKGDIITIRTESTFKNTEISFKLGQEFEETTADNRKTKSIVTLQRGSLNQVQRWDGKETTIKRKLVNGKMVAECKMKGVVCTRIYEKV

FABP7 [3] = biological target: T1, FABP7; assay: as above
FABP3 [4] = biological target: T3, FABP3 (Homo sapiens, UniProt P05413); assay: as above; conditions: 1.5 µM ligand, 150 nM protein; labelled compound; pH 7.4, 25 °C
T3 sequence (P05413 2-133): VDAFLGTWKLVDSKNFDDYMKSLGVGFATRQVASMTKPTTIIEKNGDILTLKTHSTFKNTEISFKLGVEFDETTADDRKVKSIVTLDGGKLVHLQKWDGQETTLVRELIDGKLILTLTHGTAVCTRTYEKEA

FABP7 [5] = biological target: T1, FABP7; conditions: 0.5 µM protein, 5 mol% DHE in donor liposomes, pH 7.2, 25 °C
FABP8 [6] = biological target: T2, FABP8; conditions: 0.5 µM protein, 5 mol% DHE in donor liposomes, pH 7.2, 25 °C
FABP3 [7] = biological target: T3, FABP3; conditions: 0.5 µM protein, 5 mol% DHE in donor liposomes, pH 7.2, 25 °C
FABP3 [8] = biological target: T3, FABP3; assay: radioligand binding, Ni bead pull-down, scintillation counting; conditions: 1.5 µM ligand, 150 nM protein; labelled compound; pH 7.4, 25 °C; remark: listed apart in the source
FABP8 [9] = biological target: T2, FABP8; assay: as above; conditions: 1.5 µM ligand, 150 nM protein; labelled compound; pH 7.4, 25 °C; remark: listed apart in the source

CCCCC/C=C\C/C=C\C/C=C\C/C=C\CCCC(=O)O [arachidonic acid]
relative 3H-cholesterol bound (FABP7 [1]; competitor 7.5 µM): all the tested fatty acids could compete with ^3H-cholesterol for FABP7 binding

CC(C)CCC[C@@H](C)[C@H]1CC[C@H]2[C@@H]3CC=C4C[C@@H](O)CC[C@]4(C)[C@H]3CC[C@]12C [cholesterol]
relative 3H-cholesterol bound (FABP8 [2]): FABP8 bound cholesterol as potently as FABP7 | Kd (FABP7 [3]): 3.04 ± 0.78 µM | relative 3H-cholesterol bound (FABP3 [4]): FABP3 showed modestly yet significantly reduced binding affinity for cholesterol

CC(C)[C@@H](C)/C=C/[C@@H](C)[C@H]1CC[C@H]2C3=CC=C4C[C@@H](O)CC[C@]4(C)C3=CC[C@]12C [dehydroergosterol]
initial transport rate (FABP7 [5]): The purified FABP7 protein promoted DHE transport | initial transport rate (FABP8 [6]): FABP3 and FABP8 could transfer DHE as efficiently as FABP7 | initial transport rate (FABP3 [7]): FABP3 and FABP8 could transfer DHE as efficiently as FABP7

CC/C=C\C/C=C\C/C=C\C/C=C\C/C=C\C/C=C\CCC(=O)O [docosahexaenoic acid]
relative 3H-cholesterol bound (FABP7 [1]; competitor 7.5 µM): all the tested fatty acids could compete with ^3H-cholesterol for FABP7 binding

CCCCCCCC/C=C\CCCCCCCC(=O)O [oleic acid]
relative 3H-oleic acid bound (FABP3 [8]): Both FABP3 and FABP8 could bind oleic acid avidly | relative 3H-oleic acid bound (FABP8 [9]): Both FABP3 and FABP8 could bind oleic acid avidly | relative 3H-cholesterol bound (FABP7 [1]; competitor 3.75-15 µM): oleic acid was the most potent ligand and showed a dose-dependent competing effect

CCCCCCCCCCCCCCCC(=O)O [palmitic acid]
relative 3H-cholesterol bound (FABP7 [1]; competitor 7.5 µM): all the tested fatty acids could compete with ^3H-cholesterol for FABP7 binding
